Source: the supplement of paper PMC13380429

Tests used:
Conditions in all cases: 72 h
Caco-2 [1] = test: cell viability relative to DMSO; higher = less toxic
Calu-3 [2] = test: as above
HepG2 [3] = test: as above
U2OS [4] = test: as above
Vero E6 [5] = test: as above
Caco-2 [6] = test: relative viability EC50 (midpoint between 100% and the lowest measured viability); higher = less toxic
Calu-3 [7] = test: as above
HepG2 [8] = test: as above
U2OS [9] = test: as above
Vero E6 [10] = test: as above
Caco-2 [11] = test: drug sensitivity score (DSS) for viability; higher = more toxic; extreme values may be limits of the assay
Calu-3 [12] = test: as above
HepG2 [13] = test: as above
U2OS [14] = test: as above
Vero E6 [15] = test: as above

SMILES	cell viability (Caco-2 [1]; 1 nM) [%]	cell viability (Caco-2 [1]; 10 nM) [%]	cell viability (Caco-2 [1]; 100 nM) [%]	cell viability (Caco-2 [1]; 1000 nM) [%]	cell viability (Caco-2 [1]; 10000 nM) [%]	cell viability (Calu-3 [2]; 1 nM) [%]	cell viability (Calu-3 [2]; 10 nM) [%]	cell viability (Calu-3 [2]; 100 nM) [%]	cell viability (Calu-3 [2]; 1000 nM) [%]	cell viability (Calu-3 [2]; 10000 nM) [%]	cell viability (HepG2 [3]; 1 nM) [%]	cell viability (HepG2 [3]; 10 nM) [%]	cell viability (HepG2 [3]; 100 nM) [%]	cell viability (HepG2 [3]; 1000 nM) [%]	cell viability (HepG2 [3]; 10000 nM) [%]	cell viability (U2OS [4]; 1 nM) [%]	cell viability (U2OS [4]; 10 nM) [%]	cell viability (U2OS [4]; 100 nM) [%]	cell viability (U2OS [4]; 1000 nM) [%]	cell viability (U2OS [4]; 10000 nM) [%]	cell viability (Vero E6 [5]; 1 nM) [%]	cell viability (Vero E6 [5]; 10 nM) [%]	cell viability (Vero E6 [5]; 100 nM) [%]	cell viability (Vero E6 [5]; 1000 nM) [%]	cell viability (Vero E6 [5]; 10000 nM) [%]	relative viability EC50 (Caco-2 [6]) [µM]	relative viability EC50 (Calu-3 [7]) [µM]	relative viability EC50 (HepG2 [8]) [µM]	relative viability EC50 (U2OS [9]) [µM]	relative viability EC50 (Vero E6 [10]) [µM]	drug sensitivity score (Caco-2 [11])	drug sensitivity score (Calu-3 [12])	drug sensitivity score (HepG2 [13])	drug sensitivity score (U2OS [14])	drug sensitivity score (Vero E6 [15])
Cc1cn2c(N)c(Cl)cc(C(=O)NCC3CCN(CC(C)C)CC3)c2n1	103	83.1	103	99.7	107	102	96.5	99.9	93.4	99.9	107	99.6	102	88.1	97.1	101	95.1	102	97.6	95.4	88	101	90.2	96.5	99.2	> 10	> 10	> 10	> 10	> 10	0	0	0.5	0	0
CN(C)[C@@H]1CCc2[nH]c3ccc(NC(=O)c4ccc(F)cc4)cc3c2C1	96	103	93.5	99.3	86.6	105	93.2	105	110	84.2	101	99.3	95.8	89.3	94.6	97.1	104	91.9	101	96.1	106	98.9	100	96.1	97.2	> 10	> 10	> 10	> 10	> 10	0.2	0.1	0.1	0	0
N=C(N)NCCN1CCCCCCC1 [guanethidine]	92.3	96.6	91	91.8	101	104	102	99.6	95	97.3	99.3	102	96.4	106	93.6	102	96.6	99.7	98.8	103	105	97.2	95.2	109	101	> 10	> 10	> 10	> 10	> 10	0	0	0	0	0
C=C[C@@H]1C[C@]1(NC(=O)[C@@H]1C[C@@H](Oc2ncc(OC)c3ccc(Cl)cc23)CN1C(=O)[C@@H](NC(=O)OC(C)(C)C)C(C)(C)C)C(=O)NS(=O)(=O)C1CC1 [asunaprevir]	98.7	96.5	90	104	85.8	104	101	104	101	95.9	104	97.8	98.8	89.8	86.1	98.4	101	96.7	96.8	97.8	102	98.4	93.5	101	91	> 10	> 10	> 10	> 10	> 10	0.1	0	0.6	0	0
CN(C)CCCOc1nn(Cc2ccccc2)c2ccccc12 [benzydamine]	86.2	94.3	73.1	80.3	87.1	98.8	91.7	95.6	101	90.5	97.7	102	95.1	91.4	89.8	101	96.5	100	95.6	91.2	98.7	105	98.3	96.9	85.5	> 10	> 10	> 10	> 10	> 10	0	0	0	0	0.5
